Where “and” joins values, the source holds several entries; their conditions need not be identical. Equal values may be shown once. Entries after “also recorded” stand apart in the source; their conditions may differ.
Experiments:
Type in all cases: in vivo, Mus musculus
HepG2 tumor = test: Example 1: tumor volume, tumor weight and TGI in HepG2 tumor bearing humanized mice
Protocol: (§1) Each group contains five mice. The human hepatocellular carcinoma cell line HepG2 were subcutaneously inoculated to the advanced immune deficiency mice. Total of 30 mice were included in this study.
2.2. […] The subcutaneous injection volume was […].
(§2) 3.1. […] The injection was performed using insulin syringe with the dosage of 10 mg/kg (Dosage of injection was changed to 20 mg/kg from Day 15) and injection volume of 10 mL/kg. […] The reference item was administered for G1. The procedure followed the standards of sample administration.
(§3) 3.2. The test item anti-hPD-L1 antibody or reference items were intraperitoneally injected to the mice on Day 8 after the inoculation of tumor cells. The injection was performed using insulin syringe with the dosage of 10 mg/kg (Dosage of injection was changed to 20 mg/kg from Day 15) and injection volume of 10 mL/kg. The test item anti-hPD-L1 was continuously administered on Day 8, 11, 15, 18, 22, 25, 29 and 32 for G4 and G6. The reference item was administered for G1. The procedure followed the standards of sample administration.
(§4) 3.3. […] The injection was performed using insulin syringe with the dosage of 1 mg/kg and injection volume of 5 mL/kg. […] The reference item was administered for G1. The procedure followed the standards of sample administration.
The measurement was performed from the next day of the inoculation. The tumor volumes were measured and recorded twice a week (Mon., Thur.). Tumor volume was calculated by ellipsoid equation according to the records ((major axis×minor axis×minor axis)×(π/6)).
Tumor volumes were used to calculate tumor growth inhibition (TGI) rates according to the following formula: TGI (%)=[1−(Ti−T0)/(Ci−C0)]×100, where Ti and Ci indicate the mean tumor volume in the treatment groups and vehicle group at the end of the experiment (Day 35). Whereas, T0 and C0 indicate the mean tumor volumes in the treatment group and vehicle group at the beginning of the experiment (Day 1).
(§5) Mice were sacrificed by CO2 euthanasia at the end of the study duration, and the connective tissue around tumor was resected. The tumor samples were then removed and weighed. The half tissue was fixed in 10% formaldehyde and then embedded in paraffin; the other half was prepared for the isolation of tumor-infiltrating lymphocytes (TILs).

[1] = Example 1: body weight and mortality of HepG2 tumor bearing humanized mice; conditions: OBI-3424 1 mg/kg IV, antibody 10 mg/kg IP (20 from Day 15)
Protocol: as §1, §2, §3, §4
The measurement was performed from the next day of the inoculation. The animal body weights were measured and recorded twice per week.

[2] = tested on: CD8^+ cytotoxic T cells (CTL) in tumor-infiltrating lymphocytes; test: Example 1: flow cytometry, percentage of CTL cells in TILs
Protocol: as §5
(§6) The half of mouse tumors were dissected into smaller fragments using scalpels and then digested with a cocktail of collagenase, DNase I, and Hyaluronidase (Collagenase #C5138, DNase I #D5025, Hyaluronidase #H6254, SigmaAldrich) for at least 2 hours.
(§7) Cells were stained with the fluorescently conjugated surface antibodies and incubated for 30 minutes at 4° C., and then resuspended in staining buffer for flow cytometric analysis. Flow cytometry was done using a Navios EX Flow Cytometer (Beckman Coulter). Data were analyzed using the Kaluza Analysis Software (Beckman Coulter).

[3] = tested on: CD4^+ T helper cells in tumor-infiltrating lymphocytes; test: Example 1: flow cytometry, percentage of TH cells in TILs; conditions: individual mice
Protocol: as §5, §6, §7

[4] = tested on: NK cells in tumor-infiltrating lymphocytes; test: Example 1: flow cytometry, percentage of NK cells in TILs; conditions: individual mice
Protocol: as §5, §6, §7

[5] = tested on: PD-L1^+ cells in tumor-infiltrating lymphocytes; test: Example 1: flow cytometry, percentage of PD-L1 cells in TILs; conditions: individual animal
Protocol: as §5, §6, §7

[6] = TILs, flow cytometer, individual mice
[7] = TILs, gate CD45^+CD8^+ cells, individual mice

C[C@H](OP(=O)(N1CC1)N1CC1)c1ccc([N+](=O)[O-])c(Oc2cccc(C(=O)N(C)C)c2)c1 [OBI-3424, (S)-1-(3-(3-N,N-dimethylaminocarbonyl)phenoxyl-4-mtrophenyl)-1-ethyl-N,N′-bis(ethylene)phosphoramidate]
Tumor volume, Mean (HepG2 tumor; D 1, group mean, OBI-3424 1 mg/kg IV, antibody 10 mg/kg IP (20 from Day 15)): 397.08 mm^3 | Tumor volume, Mean (HepG2 tumor; D 4, group mean, OBI-3424 1 mg/kg IV, antibody 10 mg/kg IP (20 from Day 15)): 295.20 mm^3 | Tumor volume, Mean (HepG2 tumor; D 7, group mean, OBI-3424 1 mg/kg IV, antibody 10 mg/kg IP (20 from Day 15)): 298.28 mm^3 | Tumor volume, Mean (HepG2 tumor; D 11, group mean, OBI-3424 1 mg/kg IV, antibody 10 mg/kg IP (20 from Day 15)): 344.17 mm^3 | Tumor volume, Mean (HepG2 tumor; D 14, group mean, OBI-3424 1 mg/kg IV, antibody 10 mg/kg IP (20 from Day 15)): 385.09 mm^3 | Tumor volume, Mean (HepG2 tumor; D 18, group mean, OBI-3424 1 mg/kg IV, antibody 10 mg/kg IP (20 from Day 15)): 535.36 mm^3 | Tumor volume, Mean (HepG2 tumor; D 21, group mean, OBI-3424 1 mg/kg IV, antibody 10 mg/kg IP (20 from Day 15)): 627.45 mm^3 | Tumor volume, Mean (HepG2 tumor; D 25, group mean, OBI-3424 1 mg/kg IV, antibody 10 mg/kg IP (20 from Day 15)): 773.19 mm^3 | Tumor volume, Mean (HepG2 tumor; D 28, group mean, OBI-3424 1 mg/kg IV, antibody 10 mg/kg IP (20 from Day 15)): 718.91 mm^3 | Tumor volume, Mean (HepG2 tumor; D 32, group mean, OBI-3424 1 mg/kg IV, antibody 10 mg/kg IP (20 from Day 15)): 643.09 mm^3 | Tumor volume, Mean (HepG2 tumor; D 35, group mean (mean±SEM), OBI-3424 1 mg/kg IV, antibody 10 mg/kg IP (20 from Day 15)): 590.62±164.32 mm^3 and 590.62 mm^3 | Tumor weight, Mean (HepG2 tumor; D 35, group mean, OBI-3424 1 mg/kg IV, antibody 10 mg/kg IP (20 from Day 15)): 274.44 mg | mean tumor volume compared with vehicle (in words) (HepG2 tumor; Day 35, vs vehicle (G1), Student's t-test): Significantly reduced; also recorded: significantly suppressed | effect on tumor growth (conclusion in words) (HepG2 tumor; HepG2 humanized mouse model): efficiently anti-tumor effect | TGI (HepG2 tumor; from mean tumor volumes Day 35 vs Day 1, relative to vehicle, OBI-3424 1 mg/kg IV, antibody 10 mg/kg IP (20 from Day 15)): 83.13% | tumor weight compared with vehicle (in words) (HepG2 tumor; sacrifice Day 36, vs vehicle (G1)): significantly suppressed | Body Weight, Mean ([1]; Day 18, group mean): 24.23 g | Body Weight, Mean ([1]; Day 21, group mean): 24.04 g | CD8^+ cytotoxic T cells (CTL) population in tumors compared with vehicle (in words) ([2]; Example 1, TILs at sacrifice, flow cytometry): significantly elevated | CD25^+ CTL cells (CD45^+CD8^+ CD25^+) Total % [2, 6]: 0.27% and 0.30% and 0.77% and 0.52% and 0.28% | CTL cells (CD45^+CD8^+) Total % [2, 6]: 20.93% and 12.12% and 21.14% and 45.53% and 36.08% | PD-1^+ CTL cells (CD45^+CD8^+ PD-1^+) Total % [2, 6]: 21.41% and 12.30% and 20.63% and 41.26% and 28.90% | CTL cells (CD45^+CD8^+) CD45^+ Gated % ([2]; TILs, gate CD45^+ cells, individual mice): 49.08% and 66.81% and 72.14% and 74.09% and 57.70% | CD25^+ CTL cells (CD45^+CD8^+ CD25^+) CTL Gated % [2, 7]: 1.27% and 2.48% and 3.64% and 1.13% and 0.78% | PD-1^+ CTL cells (CD45^+CD8^+ PD-1^+) CTL Gated % [2, 7]: 92.13% and 91.25% and 99.25% and 91.79% and 85.06% | CD25^+ CTL cells (CD45^+CD8^+ CD25^+) Cell count ([2]; TILs, individual mice): 0.12 ×10^5 and 0.22 ×10^5 and 0.63 ×10^5 and 0.13 ×10^5 and 0.11 ×10^5 | CTL cells (CD45^+CD8^+) Cell count ([2]; TILs, individual mice): 9.13 ×10^5 and 8.93 ×10^5 and 17.29 ×10^5 and 11.11 ×10^5 and 14.65 ×10^5 | PD-1^+ CTL cells (CD45^+CD8^+ PD-1^+) Cell count ([2]; TILs, individual mice): 9.33 ×10^5 and 9.07 ×10^5 and 16.88 ×10^5 and 10.07 ×10^5 and 11.73 ×10^5 | CD25^+ TH cells (CD45^+CD4^+ CD25^+) Total % ([3]; flow cytometer): 1.06% and 0.68% and 0.82% and 0.52% and 0.53% | PD-1^+ TH cells (CD45^+CD4^+ PD-1^+) Total % ([3]; flow cytometer): 19.45% and 9.29% and 13.77% and 15.00% and 16.75% | TH cells (CD45^+CD4^+) Total % ([3]; flow cytometer): 18.53% and 9.14% and 14.30% and 14.34% and 16.81% | TH cells (CD45^+CD4^+) CD45^+ Gated % ([3]; gate CD45^+ cells): 43.45% and 50.36% and 48.78% and 23.33% and 26.88% | CD25^+ TH cells (CD45^+CD4^+CD25^+) TH Gated % ([3]; gate CD45^+CD4^+ cells): 5.70% and 7.39% and 5.74% and 3.63% and 3.15% | PD-1^+ TH cells (CD45^+CD4^+ PD-1^+) TH Gated % ([3]; gate CD45^+CD4^+ cells): 99.46% and 98.15% and 99.75% and 97.06% and 97.78% | CD25^+ TH cells (CD45^+CD4^+ CD25^+) Cell count [3]: 0.46 ×10^5 and 0.50 ×10^5 and 0.67 ×10^5 and 0.13 ×10^5 and 0.22 ×10^5 | PD-1^+ TH cells (CD45^+CD4^+ PD-1^+) Cell count [3]: 8.48 ×10^5 and 6.85 ×10^5 and 11.26 ×10^5 and 3.66 ×10^5 and 6.80 ×10^5 | TH cells (CD45^+CD4^+) Cell count [3]: 8.08 ×10^5 and 6.74 ×10^5 and 11.70 ×10^5 and 3.50 ×10^5 and 6.82 ×10^5 | CD16^+ NK cells (CD45^+CD56^+ CD16^+) Total % ([4]; flow cytometer): 0.39% and 0.21% (2×) and 0.24% and 0.17% | NK cells (CD45^+CD56^+) Total % ([4]; flow cytometer): 2.47% and 1.62% and 1.15% and 2.73% and 1.39% | PD-1^+ NK cells (CD45^+CD56^+PD-1^+) Total % ([4]; flow cytometer): 3.26% and 1.51% and 1.63% and 2.76% and 2.38% | NK cells (CD45^+CD56^+) CD45^+ Gated % ([4]; gate CD45^+ cells): 6.06% and 9.96% and 4.16% and 5.20% and 2.33% | CD16^+ NK cells (CD45^+CD56^+ CD16^+) NK Gated % ([4]; gate CD45^+CD56^+ cells): 15.62% and 12.65% and 20.43% and 7.71% and 11.87% | PD-1^+ NK cells (CD45^+CD56^+PD-1^+) NK Gated % ([4]; gate CD45^+CD56^+ cells): 88.81% and 88.82% and 97.60% and 90.05% and 83.33% | CD16^+ NK cells (CD45^+CD56^+ CD16^+) Cell count [4]: 0.17 ×10^5 and 0.15 ×10^5 and 0.20 ×10^5 and 0.05 ×10^5 and 0.07 ×10^5 | NK cells (CD45^+CD56^+) Cell count [4]: 1.08 ×10^5 and 1.19 ×10^5 and 0.94 ×10^5 and 0.67 ×10^5 and 0.56 ×10^5 | PD-1^+ NK cells (CD45^+CD56^+PD-1^+) Cell count [4]: 1.42 ×10^5 and 1.11 ×10^5 and 1.33 ×10^5 and 0.67 ×10^5 and 0.97 ×10^5 | CD45^+ cells Cell count (×10^6) [5]: 1.86 ×10^6 and 1.34 ×10^6 and 2.40 ×10^6 and 1.50 ×10^6 and 2.54 ×10^6 | CD45^+ cells Gated % [5]: 58.88% and 28.16% and 40.69% and 79.75% and 79.11% | CD45^+ cells Total % [5]: 42.64% and 18.14% and 29.31% and 61.46% and 62.53% | Total PD-L1^+ cells (PD-L1^+) Cell count (×10^5) [5]: 2.17 ×10^5 and 14.22 ×10^5 and 4.16 ×10^5 and 0.26 ×10^5 and 0.25 ×10^5 | Total PD-L1^+ cells (PD-L1^+), Total % [5]: 4.97% and 19.30% and 5.09% and 1.08% and 0.62% | Total PD-L1^+ cells (PD-L1^+), Total cells Gated % [5]: 5.67% and 24.15% and 6.02% and 1.15% and 0.65% | Total cells Cell count (×10^6) [5]: 3.82 ×10^6 and 5.89 ×10^6 and 6.92 ×10^6 and 2.30 ×10^6 and 3.83 ×10^6 | Total cells Gated % [5]: 87.63% and 79.89% and 84.57% and 94.06% and 94.44% | Total cells Total % [5]: 87.63% and 79.89% and 84.57% and 94.06% and 94.44%

From patent US20240216401A1, “COMBINATION THERAPY BY USING AKR1C3-ACTIVATED COMPOUND WITH IMMUNE CHECKPOINT INHIBITOR” (OBI Pharma, Inc., priority 2021, published 2024)
